Two compounds from patent publication US11517571B2, “Use of kinase inhibitors to manage tuberculosis and other infectious diseases” (priority 2015, dated 2022) can be followed below.

For data set [1], the system named is mycobacterium. Put plainly: Mice infected with mycobacterium, CFU in the spleen. It is filed as in vivo. The following applies: 7 days p.i., FIG. 2. Here is the method: Mice infected with mycobacterium were administered […], rifabutin (2.5 mg/kg/day) alone, and/or a combination of both. CFU in the spleen were determined 7 days (p.i.).
A short description of data set [2]: Drug concentration in the blood after administration.
For another data set, the target named is c-Kit (Homo sapiens, UniProt P10721). Conditions: in vivo.
Chain of c-Kit (P10721 26-976): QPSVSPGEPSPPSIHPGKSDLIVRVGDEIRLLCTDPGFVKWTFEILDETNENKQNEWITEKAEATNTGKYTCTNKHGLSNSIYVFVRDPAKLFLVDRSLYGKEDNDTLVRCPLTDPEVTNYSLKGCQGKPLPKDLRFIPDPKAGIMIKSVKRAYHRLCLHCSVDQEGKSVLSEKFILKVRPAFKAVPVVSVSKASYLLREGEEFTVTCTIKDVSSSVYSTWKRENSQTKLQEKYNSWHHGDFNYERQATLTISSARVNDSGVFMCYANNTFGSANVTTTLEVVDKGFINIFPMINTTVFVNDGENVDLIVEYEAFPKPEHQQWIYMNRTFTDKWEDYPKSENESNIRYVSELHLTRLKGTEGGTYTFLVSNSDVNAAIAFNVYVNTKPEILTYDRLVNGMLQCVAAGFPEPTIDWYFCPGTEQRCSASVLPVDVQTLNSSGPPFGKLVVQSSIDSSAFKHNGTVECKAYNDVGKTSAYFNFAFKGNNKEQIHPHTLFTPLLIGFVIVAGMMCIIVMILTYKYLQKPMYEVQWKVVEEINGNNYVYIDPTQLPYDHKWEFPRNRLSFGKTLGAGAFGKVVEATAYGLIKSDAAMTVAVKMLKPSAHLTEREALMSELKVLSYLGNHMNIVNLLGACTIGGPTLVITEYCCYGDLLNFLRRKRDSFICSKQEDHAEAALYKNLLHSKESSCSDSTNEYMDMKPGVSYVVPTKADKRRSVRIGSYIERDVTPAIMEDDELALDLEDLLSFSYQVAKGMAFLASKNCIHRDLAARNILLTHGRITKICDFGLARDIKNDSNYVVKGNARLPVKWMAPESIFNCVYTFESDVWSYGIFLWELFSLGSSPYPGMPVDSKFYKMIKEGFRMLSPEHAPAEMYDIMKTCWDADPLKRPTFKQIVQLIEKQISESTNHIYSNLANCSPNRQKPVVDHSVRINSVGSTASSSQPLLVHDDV
Data set [3] deals with Mtb within infected macrophages. As to the kind of experiment: Mtb in infected macrophages: bacterial load and phagosome-to-lysosome translocation. In kind it is cell-based.
The next data set relates to Mtb. As to the kind of experiment: Rhesus macaque latent TB reactivated by SIV. In kind it is in vivo, Rhesus macaques. Conditions: then SIV.
Data set [4] relates to mycobacterium. Put plainly: In vivo studies with animals infected with mycobacterium.
The conditions of data set [5]: in vivo.

In the case of `CO[C@H]1/C=C/O[C@@]2(C)Oc3c(C)c(O)c4c(c3C2=O)C2=NC3(CCN(CC(C)C)CC3)NC2=C(NC(=O)/C(C)=C\C=C\[C@H](C)[C@H](O)[C@@H](C)[C@@H](O)[C@@H](C)[C@H](OC(C)=O)[C@@H]1C)C4=O` [Rifabutin], the “bacterial load (CFU in the spleen)” value with mycobacterium [1] (rifabutin 2.5 mg/kg/day alone) is “decrease in bacterial load”.

For `Cc1ccc(NC(=O)c2ccc(CN3CCN(C)CC3)cc2)cc1Nc1nccc(-c2cccnc2)n1` [imatinib, N-(4-methyl-3-((4-(pyridin-3-yl)pyrimidin-2-yl)amino)phenyl)-4-((4-methylpiperazin-1-yl)methyl)benzamide], in data set [2], the peak concentration entry is “micromolar range” and the “time to peak concentration” value was not above 6 h. Moreover, on c-Kit, the “myelopoiesis (stem cells divide and differentiate along the myeloid lineage)” value was “encourages the stem cells to divide and differentiate along the myeloid lineage”; the “numbers of innate immune cells in the blood and organs” value was “increase”. Also, in data set [3] (FIG. 1), the “bacterial load in macrophages” value is “decreases bacterial load”. Moreover, the “translocation of Mtb from the phagosome into the lysosome” value in data set [3] (at peak concentration in the micromolar range, depends on Abl) is reported as “induces translocation of Mtb”. Further, the survival entry with Mtb (latent infection for 6-10 weeks, daily treatment, FIG. 3B) is listed as “survived”. In the data set on Mtb (latent infection), the “TB reactivation induced by SIV” value is on record as “prevents reactivation”. Also, the “bacterial load (CFU in the spleen)” value in the data set with mycobacterium [1] (100 mg/kg/day alone) was “decrease in bacterial load”. Besides, in the data set on mycobacterium [4], the “amount of granulomatous lesions within the liver” value is recorded as “reduced the amount of granulomatous lesions” and the “bacterial load in macrophages” value is reported as “reduced bacterial load in macrophages”. Moreover, the “concentration in the blood” value in data set [5] is approximately 100 nM.
